Test: xn = mol fraction of the nth substance listed, in the solute-free solvent

SMILES: O=[N+]([O-])c1cc[nH]n1 + CO + O
- solubility (g/100 g solution) (283.15 K, x2 = 0.05881): 0.466
- solubility (g/100 g solution) (283.15 K, x2 = 0.1233): 0.564
- solubility (g/100 g solution) (283.15 K, x2 = 0.1942): 0.925
- solubility (g/100 g solution) (283.15 K, x2 = 0.2727): 1.15
- solubility (g/100 g solution) (283.15 K, x2 = 0.3599): 1.39
- solubility (g/100 g solution) (283.15 K, x2 = 0.4576): 1.45
- solubility (g/100 g solution) (283.15 K, x2 = 0.5675): 1.51
- solubility (g/100 g solution) (283.15 K, x2 = 0.6923): 1.5
- solubility (g/100 g solution) (283.15 K, x2 = 0.835): 1.44
- solubility (g/100 g solution) (288.15 K, x2 = 0.05881): 0.609
- solubility (g/100 g solution) (288.15 K, x2 = 0.1233): 0.712
- solubility (g/100 g solution) (288.15 K, x2 = 0.1942): 1.17
- solubility (g/100 g solution) (288.15 K, x2 = 0.2727): 1.42
- solubility (g/100 g solution) (288.15 K, x2 = 0.3599): 1.69
- solubility (g/100 g solution) (288.15 K, x2 = 0.4576): 1.83
- solubility (g/100 g solution) (288.15 K, x2 = 0.5675): 1.85
- solubility (g/100 g solution) (288.15 K, x2 = 0.6923): 1.84
- solubility (g/100 g solution) (288.15 K, x2 = 0.835): 1.82
- solubility (g/100 g solution) (293.15 K, x2 = 0.05881): 0.793
- solubility (g/100 g solution) (293.15 K, x2 = 0.1233): 0.875
- solubility (g/100 g solution) (293.15 K, x2 = 0.1942): 1.41
- solubility (g/100 g solution) (293.15 K, x2 = 0.2727): 1.77
- solubility (g/100 g solution) (293.15 K, x2 = 0.3599): 2.12
- solubility (g/100 g solution) (293.15 K, x2 = 0.4576): 2.28
- solubility (g/100 g solution) (293.15 K, x2 = 0.5675): 2.27
- solubility (g/100 g solution) (293.15 K, x2 = 0.6923): 2.25
- solubility (g/100 g solution) (293.15 K, x2 = 0.835): 2.25
- solubility (g/100 g solution) (298.15 K, x2 = 0.05881): 1.01
- solubility (g/100 g solution) (298.15 K, x2 = 0.1233): 1.08
- solubility (g/100 g solution) (298.15 K, x2 = 0.1942): 1.73
- solubility (g/100 g solution) (298.15 K, x2 = 0.2727): 2.15
- solubility (g/100 g solution) (298.15 K, x2 = 0.3599): 2.57
- solubility (g/100 g solution) (298.15 K, x2 = 0.4576): 2.77
- solubility (g/100 g solution) (298.15 K, x2 = 0.5675): 2.8
- solubility (g/100 g solution) (298.15 K, x2 = 0.6923): 2.74
- solubility (g/100 g solution) (298.15 K, x2 = 0.835): 2.79
- solubility (g/100 g solution) (303.15 K, x2 = 0.05881): 1.33
- solubility (g/100 g solution) (303.15 K, x2 = 0.1233): 1.38
- solubility (g/100 g solution) (303.15 K, x2 = 0.1942): 2.13
- solubility (g/100 g solution) (303.15 K, x2 = 0.2727): 2.73
- solubility (g/100 g solution) (303.15 K, x2 = 0.3599): 3.22
- solubility (g/100 g solution) (303.15 K, x2 = 0.4576): 3.46
- solubility (g/100 g solution) (303.15 K, x2 = 0.5675): 3.45
- solubility (g/100 g solution) (303.15 K, x2 = 0.6923): 3.41
- solubility (g/100 g solution) (303.15 K, x2 = 0.835): 3.66
- solubility (g/100 g solution) (308.15 K, x2 = 0.05881): 1.69
- solubility (g/100 g solution) (308.15 K, x2 = 0.1233): 1.73
- solubility (g/100 g solution) (308.15 K, x2 = 0.1942): 2.68
- solubility (g/100 g solution) (308.15 K, x2 = 0.2727): 3.42
- solubility (g/100 g solution) (308.15 K, x2 = 0.3599): 4.01
- solubility (g/100 g solution) (308.15 K, x2 = 0.4576): 4.3
- solubility (g/100 g solution) (308.15 K, x2 = 0.5675): 4.33
- solubility (g/100 g solution) (308.15 K, x2 = 0.6923): 4.19
- solubility (g/100 g solution) (308.15 K, x2 = 0.835): 4.99
- solubility (g/100 g solution) (313.15 K, x2 = 0.05881): 2.27
- solubility (g/100 g solution) (313.15 K, x2 = 0.1233): 2.29
- solubility (g/100 g solution) (313.15 K, x2 = 0.1942): 3.46
- solubility (g/100 g solution) (313.15 K, x2 = 0.2727): 4.48
- solubility (g/100 g solution) (313.15 K, x2 = 0.3599): 5
- solubility (g/100 g solution) (313.15 K, x2 = 0.4576): 5.39
- solubility (g/100 g solution) (313.15 K, x2 = 0.5675): 5.46
- solubility (g/100 g solution) (313.15 K, x2 = 0.6923): 5.28
- solubility (g/100 g solution) (313.15 K, x2 = 0.835): 6.1
- solubility (g/100 g solution) (318.15 K, x2 = 0.05881): 2.94
- solubility (g/100 g solution) (318.15 K, x2 = 0.1233): 2.92
- solubility (g/100 g solution) (318.15 K, x2 = 0.1942): 4.36
- solubility (g/100 g solution) (318.15 K, x2 = 0.2727): 5.7
- solubility (g/100 g solution) (318.15 K, x2 = 0.3599): 6.42
- solubility (g/100 g solution) (318.15 K, x2 = 0.4576): 6.94
- solubility (g/100 g solution) (318.15 K, x2 = 0.5675): 6.85
- solubility (g/100 g solution) (318.15 K, x2 = 0.6923): 6.7
- solubility (g/100 g solution) (318.15 K, x2 = 0.835): 7.64
- solubility (g/100 g solution) (323.15 K, x2 = 0.05881): 3.85
- solubility (g/100 g solution) (323.15 K, x2 = 0.1233): 3.79
- solubility (g/100 g solution) (323.15 K, x2 = 0.1942): 5.66
- solubility (g/100 g solution) (323.15 K, x2 = 0.2727): 7.33
- solubility (g/100 g solution) (323.15 K, x2 = 0.3599): 8.34
- solubility (g/100 g solution) (323.15 K, x2 = 0.4576): 8.92
- solubility (g/100 g solution) (323.15 K, x2 = 0.5675): 8.68
- solubility (g/100 g solution) (323.15 K, x2 = 0.6923): 8.39
- solubility (g/100 g solution) (323.15 K, x2 = 0.835): 9.23
